# Assay results reported in patent US5593970A, “Heterocyclic anthracycline analogs” (priority 1994, dated 1997).
# Several values for one entry are separate records, joined by “and”; a condition that tells them apart may be missing. Equal values may be shown once. Where a name gives a salt, the structure may show the parent alone. Read-outs that look alike come from different tables or passages of the source.
# Key:
# Test in all cases: Microculture tetrazolium assay
# Assay type in all cases: cell-based
# SKVLB = conditions: for VLB/OV3: IC50 ratio SKVLB/SKOV3; for IC50: SKVLB
# SKOV3 = tested on: SKOV3
# T47D = tested on: T47D
# HT29 = tested on: HT29
# LOX = tested on: LOX
# [1] = Homo sapiens, SK-OV-3, SKOV3, read-out: IC50
# [2] = Homo sapiens, HT-29, HT29, read-out: IC50
Compound,VLB/OV3 (SKVLB),IC50 (SKVLB; read-out: IC50),IC50 (SKOV3; [1]) [nM],"IC50 (T47D; Homo sapiens, read-out: IC50) [nM]",IC50 (LOX; read-out: IC50),further results
"CC(=O)CC1CC2=C(C(=O)c3cc4ccccc4c(O)c3C2=O)C(O[C@H]2C[C@H](N)[C@H](O)[C@H](C)O2)O1 (mixture of isomers) [BCH-2111, (1'S,1R,3S) and (1'S,1S,3R)-3-6-hydroxy-1-(2',3',6'-trideoxy-3'-amino-4'-hydroxy-L-lyxohexopyranose-5,12-dioxo-3,4,5,12-tetrahydroanthraceno[2,3-c]pyran-3-yl)propanone hydrochloride]",5.51,11800 nM,2140,2420,–,IC50 (HT29; [2]): 954 nM
"CC(=O)[C@@H]1CC2=C(C(=O)c3cc4ccccc4c(O)c3C2=O)[C@@H](O[C@H]2C[C@H](NC(=O)C(F)(F)F)[C@H](O)[C@H](C)O2)O1 [BCH-730, (1S',1R,3S)-Methyl-(6-hydroxy-1-(3'-trifluoroacyldaunosamine)-5,12-dioxo-3,4,5,12-tetrahydroanthraceno[2,3-C]pyran-3-yl) ketone]",–,2010 nM and 2880 nM,3520,3620,1660 nM,IC50 (LOX): 1780 nM; IC50 (T47D; read-out: IC50): 3080 nM
CC(=O)[C@@H]1CC2=C(C(=O)c3cc4ccccc4c(O)c3C2=O)[C@@H](O[C@H]2C[C@H](N)[C@H](O)[C@H](C)O2)O1 [BCH-1128],1.60 and 1.83,1400 nM and 2200 nM,874,1310,850 nM and 493 nM,"IC50 (SKOV3; SKOV3, read-out: IC50): 1200 nM; IC50 (T47D; read-out: IC50): 1910 nM"
CC(=O)C1Cc2c(O)c3c(c(O)c2C(O[C@H]2C[C@H](N4CCOCC4)[C@H](O)[C@H](C)O2)O1)C(=O)c1ccccc1C3=O (stereo partly shown) [BCH-1193],2.46,–,–,–,–,IC50 (SKVLB): 4790 nM and 4920 nM; IC50 (SKOV3; SKOV3): 1950 nM; IC50 (T47D): 2570 nM and 4160 nM; IC50 (HT29; HT29): 1040 nM and 940 nM
"CC(=O)[C@@H]1Cc2c(O)c3c(c(O)c2[C@@H](O[C@H]2C[C@H](N)[C@H](O)[C@H](C)O2)O1)C(=O)c1ccccc1C3=O [BCH-1194, (1'S,1R,3S)-Methyl-[5,12-dihydroxy-1-(2',3',6'-trideoxy-3'-amino-4'-hydroxy-L-lyxohexopyranose)-6,11-dioxo-3,4,6,11-tetrahydroanthraceno-(2,3-C)pyran-3-yl]ketone hydrochloride]",260.71,1460 nM,5.6,43.9,62.3 nM,–
"CC(=O)[C@H]1Cc2c(O)c3c(c(O)c2[C@H](O[C@H]2C[C@H](N)[C@H](O)[C@H](C)O2)O1)C(=O)c1ccccc1C3=O [BCH-1195, (1'S,1S,3R)-Methyl-[5,12-dihydroxy-1-(2',3',6'-trideoxy-3'-amino-4'-hydroxy-L-lyxohexopyranose)-6,11,dioxo-3,4,6,11-tetrahydroanthraceno-(2,3-C)pyran-3-yl]ketone hydrochloride]",4.99,3350 nM,672,1410,741 nM,–
"CC[C@@H]1CC2=C(C(=O)c3cc4ccccc4c(O)c3C2=O)[C@@H](O[C@H]2C[C@H](NC(=O)C(F)(F)F)[C@H](O)[C@H](C)O2)O1 [BCH-1606, (1'S,1R,3R)-5,12-dioxo-3-ethyl-6-hydroxy-1-(2',3',6'-trideoxy-3'-trifluoroacetamido-4'-hydroxy-L-lyxohexopyranose)-3,4,5,12-tetrahydroanthraceno[2,3-c]pyran]",2.88,3260 nM,1130,1330,891 nM,–
"CC[C@H]1CC2=C(C(=O)c3cc4ccccc4c(O)c3C2=O)[C@H](O[C@H]2C[C@H](N)[C@H](O)[C@H](C)O2)O1 [BCH-1610, (1'S,1S,3S)-5,12-dioxo-3-ethyl-6-hydroxy-1-(2',3',6'-trideoxy-3'-amino-4'-hydroxy-L-lyxohexopyranose)-3,4,5,12-tetrahydroanthraceno[2,3-c]pyran hydrochloride]",3.30,–,–,–,–,"IC50 (SKVLB): 2770 nM; IC50 (LOX): 845 nM; IC50 (SKOV3; Homo sapiens, SK-OV-3, SKOV3): 839 nM; IC50 (T47D; Homo sapiens): 1360 nM"
CC(=O)[C@@H]1Cc2c(O)c3c(c(O)c2[C@@H](O[C@@H]2O[C@@H](C)[C@@H](O)[C@@H](O)C2I)O1)C(=O)c1ccccc1C3=O (stereo partly shown) [BCH-1672],2.89,990 nM,343,–,232 nM,IC50 (HT29; [2]): 1670 nM
"C[C@@H]1O[C@@H](O[C@H]2O[C@H](C(C)(F)F)CC3=C2C(=O)c2cc4ccccc4c(O)c2C3=O)C[C@H](NC(=O)C(F)(F)F)[C@@H]1O [BCH-1676, (1'S,1R,3S)-5,12-dioxo-3-(1,1-difluoroethyl)-6-hydroxy-1-(2',3',6'-trideoxy-3'-trifluoroacetamido-L-lyxohexopyranose)-3,4,5,12-tetrahydroanthraceno-[2,3-c]-pyran]",1.63,4010 nM,2460,–,2310 nM,IC50 (HT29; [2]): 3050 nM
COP(=O)(CC(=O)[C@@H]1CC2=C(C(=O)c3cc4ccccc4c(O)c3C2=O)[C@@H](O[C@H]2C[C@H](NC(=O)C(F)(F)F)[C@H](O)[C@H](C)O2)O1)OC [BCH-1678],2.54,–,–,–,–,"IC50 (SKVLB): 13600 nM; IC50 (LOX): 3770 nM; IC50 (SKOV3; Homo sapiens, SK-OV-3, SKOV3): 5360 nM; IC50 (HT29; Homo sapiens, HT-29, HT29): 5650 nM"
